Read-outs that look alike come from different tables or passages of the source. Starred links: 1 amine or outer side, 2 acyl side, 3 side chain; linkers in the order of their positions; H or OH if unused. Positions of bridges follow the written chain, without caps; N, C: chain ends. Non-standard residues stand in square brackets, D forms with d. Residues, ends and D or L forms follow the SMILES beside them. *: point of attachment. Phe(4-(CH2)5CO) = O=C([C@H](Cc1ccc(CCCCCC(=O)[*:3])cc1)N[*:1])[*:2]; Phe(3-(CH2)4CO) = O=C([C@H](Cc1cccc(CCCCC(=O)[*:3])c1)N[*:1])[*:2]; Met(O2) = CS(=O)(=O)CC[C@H](N)C(=O)O; NMeF = CN[C@@H](Cc1ccccc1)C(=O)O; NMeGABA = CN(CCCC(=O)[*:2])[*:1]; NMeI = CC[C@H](C)[C@H](NC)C(=O)O; NMeβAla = CN(CCC(=O)[*:2])[*:1]; NMeL = CN[C@@H](CC(C)C)C(=O)O; NMeV = CN[C@H](C(=O)O)C(C)C; NMeA = CN[C@@H](C)C(=O)O; Piperidide = C1CCN(*)CC1; dNMeA = CN[C@H](C)C(=O)O; β3hA = C[C@H](N)CC(=O)O; Sar = CNCC(=O)O; tBu = CC(C)(C)*
How the values were obtained:
[1] = PAMPA (parallel artificial membrane permeability assay); format: in vitro ADME; details: for Papp at 18 hours, 50 µM: PAMPA
Procedure, shortened: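 Artificial membrane was 10% (w/v) egg lecithin plus 0.5% (w/v) cholesterol in dodecane on a PVDF filter. A 10 mM DMSO stock was added at 0.5% (v/v) to donor buffer (50 mM MOPSO, pH 6.5, 5.0% glycocholic acid). After 18 h at 37 °C, LC/MS or LC/UV gave donor and acceptor levels for Pe.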

[2] = Metabolic stability in human hepatic microsome; format: in vitro ADME; details: microsomes
[3] = membrane permeation rate (Pe), 50 mM MOPSO buffer pH 6.5 with 5.0% glycocholic acid, 37° C., 18 hours, read-out: iPAMPA Pe
[4] = pH 7.4, human hepatic microsome, NADPH(+), read-out: CL NADPH(+)

| Structure (SMILES) | Papp at 18 hours, 50 µM [1, 3] [×10⁻⁶ cm/s] | microsomal CLint at 1 uM [2, 4] [µL/min/mg] | Papp at 18 hours, 50 µM ([1]; pH 6.5) [×10⁻⁶ cm/s] | microsomal CLint at 1 uM ([2]; human, pH 7.4, CL NADPH(+)) [µL/min/mg] | iPAMPA Pe ([1]; membrane permeation rate (Pe), 50 mM MOPSO buffer pH 6.5 with 5.0% glycocholic acid, 37° C., 18 hours) |
| --- | --- | --- | --- | --- | --- |
| CC(C)C[C@@H]1NC(=O)[C@H](CC(C)C)N(C)C(=O)[C@H](C)NC(=O)[C@H](C(C)C)N(C)C(=O)[C@H](Cc2ccccc2)NC(=O)CN(C)C(=O)[C@H]([C@@H](C)O)NC(=O)[C@H](C)N(C)C(=O)[C@H](CC(C)C)N(C)C(=O)[C@@H](C)NC(=O)C[C@H](C)NC1=O [DP-764] (cyclo(A[NMeL]L[β3hA][dA][NMeL][NMeA]T[Sar]F[NMeV])) | 5 | 27 |  |  |  |
| CC(C)C[C@@H]1NC(=O)[C@H](CC(C)C)N(C)C(=O)[C@H](C)N(C)C(=O)[C@@H](C(C)C)NC(=O)C[C@@H](C(=O)N2CCCCC2)NC(=O)[C@H](CCS(C)(=O)=O)NC(=O)[C@H](CC(C)C)N(C)C(=O)[C@H](C)N(C)C(=O)[C@H](CC(C)C)N(C)C(=O)[C@H](Cc2ccccc2)NC(=O)[C@H](Cc2ccccc2)N(C)C1=O [DP-620] ([dV][NMeA][NMeL]L[NMeF]F[NMeL][NMeA][NMeL][Met(O2)]D-Piperidide; lactam N-11) | 24 | 26 |  |  |  |
| CC[C@H](C)[C@@H]1NC(=O)[C@H](CC(C)C)N(C)C(=O)CN(C)C(=O)[C@H](Cc2ccccc2)NC(=O)[C@H](C(C)C)N(C)C(=O)[C@H](C)N(C)C(=O)[C@H]([C@@H](C)O)NC(=O)[C@H](C)N(C)C(=O)C[C@@H](C(=O)N(C)[C@@H](CC(C)C)C(=O)N[C@H](C(=O)N(C)[C@@H](CC(C)C)C(=O)N[C@@H](C)C(=O)N2CCCCC2)[C@@H](C)O)NC(=O)[C@H](C)NC1=O [DP-581] ([NMeA]T[NMeA][NMeV]F[Sar][NMeL]IAD[NMeL]T[NMeL]A-Piperidide; lactam N-10) | 2.7 | 7 |  |  |  |
| CC[C@H](C)[C@@H]1NC(=O)[C@H](CC(C)C)N(C)C(=O)CCN(C)C(=O)C[C@@H](C(=O)N2CCCCC2)NC(=O)[C@H](Cc2ccccc2)N(C)C(=O)[C@H](CC(C)C)NC(=O)CN(C)C(=O)[C@H]([C@@H](C)O)NC(=O)[C@H](C)N(C)C(=O)[C@H](C(C)C)N(C)C1=O [DP-118] ([NMeβAla][NMeL]I[NMeV][NMeA]T[Sar]L[NMeF]D-Piperidide; lactam N-10) |  |  | 14 | 79 |  |
| CC[C@H](C)[C@H]1C(=O)NCC(=O)N(C)[C@@H](Cc2ccccc2)C(=O)N[C@@H]([C@@H](C)O)C(=O)N(C)[C@@H](C)C(=O)N[C@@H](CC(C)C)C(=O)N[C@H](C(=O)N2CCCCC2)CC(=O)N(C)CCC(=O)N(C)[C@@H](C)C(=O)N[C@@H](Cc2ccccc2)C(=O)N[C@@H](C(C)C)C(=O)N(C)[C@@H](CC(C)C)C(=O)N1C [DP-59] ([NMeβAla][NMeA]FV[NMeL][NMeI]G[NMeF]T[NMeA]LD-Piperidide; lactam N-12) |  |  | 21 | 65 |  |
| CC(C)C[C@H]1C(=O)N(C)[C@@H](C(C)C)C(=O)N[C@@H](Cc2ccccc2)C(=O)N[C@H](C(=O)N(C)[C@@H](Cc2ccccc2)C(=O)N[C@@H](C)C(=O)N2CCCCC2)CC(=O)N[C@H](C)C(=O)N[C@@H](C(C)C)C(=O)N(C)[C@@H](CC(C)C)C(=O)N[C@@H]([C@@H](C)O)C(=O)N(C)[C@@H](Cc2ccccc2)C(=O)NCC(=O)N1C [DP-291] ([dA]V[NMeL]T[NMeF]G[NMeL][NMeV]FD[NMeF]A-Piperidide; lactam N-10) |  |  | 14 | 97 |  |
| CC[C@H](C)[C@H]1C(=O)N[C@@H](C)C(=O)N(C)[C@@H](CC(C)C)C(=O)N[C@@H](COC(C)(C)C)C(=O)N(C)[C@@H](CC(C)C)C(=O)N[C@H](C(=O)N2CCCCC2)Cc2ccc(cc2)CCCCCC(=O)N[C@@H](Cc2ccccc2)C(=O)N(C)[C@@H](Cc2ccccc2)C(=O)N(C)[C@@H](CC(C)C)C(=O)N[C@@H]([C@@H](C)O)C(=O)N(C)[C@@H](C)C(=O)N1C [DP-873] (F[NMeF][NMeL]T[NMeA][NMeI]A[NMeL]S(tBu)[NMeL][Phe(4-(CH2)5CO)]-Piperidide; lactam N-11) |  | 39 |  |  | 1.0E−07 |
| CC[C@H](C)[C@H]1C(=O)NCC(=O)N(C)[C@@H](Cc2ccccc2)C(=O)N[C@@H]([C@@H](C)O)C(=O)N(C)[C@@H](C)C(=O)N[C@@H](CC(C)C)C(=O)N[C@H](C(=O)N2CCCCC2)CC(=O)N(C)[C@H](C)C(=O)N(C)[C@@H](C)C(=O)N[C@@H](Cc2ccccc2)C(=O)N(C)[C@@H](CC(C)C)C(=O)N[C@@H](C(C)C)C(=O)N1C [DP-93] ([dNMeA][NMeA]F[NMeL]V[NMeI]G[NMeF]T[NMeA]LD-Piperidide; lactam N-12) |  |  | 22 | 17 |  |
| CC[C@H](C)[C@@H]1NC(=O)[C@H](CC(C)C)N(C)C(=O)[C@H](Cc2ccccc2)N(C)C(=O)CCCCc2cccc(c2)C[C@@H](C(=O)N2CCCCC2)NC(=O)[C@H](CC(C)C)N(C)C(=O)[C@H](C)N(C)C(=O)[C@H]([C@@H](C)O)NC(=O)[C@H](Cc2ccccc2)N(C)C(=O)[C@H](C)N(C)C1=O [DP-836] ([NMeF][NMeL]I[NMeA][NMeF]T[NMeA][NMeL][Phe(3-(CH2)4CO)]-Piperidide; lactam N-9) | 18 | 552 |  |  |  |
| CC(C)C[C@H]1C(=O)N[C@@H](C(C)C)C(=O)N(C)[C@@H](CC(C)C)C(=O)N(C)[C@@H](CC(C)C)C(=O)N[C@H](C(=O)N(C)[C@@H](Cc2ccccc2)C(=O)N[C@@H](C)C(=O)N2CCCCC2)CC(=O)N[C@H](C(C)C)C(=O)N(C)[C@@H](CC(C)C)C(=O)N(C)[C@@H](Cc2ccccc2)C(=O)N(C)[C@@H](CC(C)C)C(=O)N[C@@H](Cc2c[nH]cn2)C(=O)N1C [DP-586] ([dV][NMeL][NMeF][NMeL]H[NMeL]V[NMeL][NMeL]D[NMeF]A-Piperidide; lactam N-10) | 0.44 | 15 |  |  |  |
| CC[C@H](C)[C@H]1C(=O)N(C)[C@@H](Cc2ccccc2)C(=O)N[C@@H]([C@@H](C)O)C(=O)N(C)[C@@H](C)C(=O)N(C)[C@@H](C(C)C)C(=O)N(C)[C@@H](CC(C)C)C(=O)N[C@@H](C)C(=O)N[C@H](C(=O)N2CCCCC2)CC(=O)N(C)CCC(=O)N[C@@H](Cc2ccccc2)C(=O)N(C)[C@@H](CC(C)C)C(=O)N1C [DP-241] ([NMeβAla]F[NMeL][NMeI][NMeF]T[NMeA][NMeV][NMeL]AD-Piperidide; lactam N-11) | 26 | 30 |  |  |  |
| CC[C@H](C)[C@H]1C(=O)N[C@@H](C)C(=O)N(C)[C@@H](CC(C)C)C(=O)N[C@@H]([C@@H](C)O)C(=O)N[C@@H](Cc2ccccc2)C(=O)N(C)[C@@H](Cc2ccccc2)C(=O)N(C)[C@@H](CC(C)C)C(=O)N[C@@H](COC(C)(C)C)C(=O)N(C)[C@@H](CC(C)C)C(=O)N(C)[C@@H](C)C(=O)N[C@@H](C)CC(=O)N[C@H](C(C)C)C(=O)N1C [DP-760] (cyclo(A[NMeL]TF[NMeF][NMeL]S(tBu)[NMeL][NMeA][β3hA][dV][NMeI])) |  |  | 28 | 194 |  |
| CC(C)C[C@H]1C(=O)N[C@@H](Cc2ccccc2)C(=O)N[C@H](C(=O)N(C)[C@@H](Cc2ccccc2)C(=O)N[C@@H](C)C(=O)N2CCCCC2)CC(=O)N(C)CCCC(=O)N[C@@H]([C@@H](C)O)C(=O)N(C)CC(=O)N(C)[C@@H](C)C(=O)N[C@@H](C(C)C)C(=O)N(C)[C@@H](Cc2ccccc2)C(=O)N1C [DP-383] ([NMeGABA]T[Sar][NMeA]V[NMeF][NMeL]FD[NMeF]A-Piperidide; lactam N-9) | 14 | 138 |  |  |  |
| CC(C)C[C@H]1C(=O)N(C)[C@@H](C)C(=O)N(C)[C@@H](Cc2ccccc2)C(=O)N[C@@H]([C@@H](C)O)C(=O)N(C)[C@@H](C)C(=O)N(C)[C@@H](Cc2ccccc2)C(=O)N(C)[C@@H](C)C(=O)N[C@H](C(=O)N(C)[C@@H](Cc2ccccc2)C(=O)N[C@@H](C)C(=O)N2CCCCC2)CC(=O)N(C)CCC(=O)N(C)[C@@H](C)C(=O)N[C@@H](C)C(=O)N1C [DP-346] ([NMeβAla][NMeA]A[NMeL][NMeA][NMeF]T[NMeA][NMeF][NMeA]D[NMeF]A-Piperidide; lactam N-11) | 4 | 7 |  |  |  |
| CC[C@H](C)[C@@H]1NC(=O)[C@H](CC(C)C)N(C)C(=O)[C@H](CC(C)C)N(C)C(=O)[C@H](C)NC(=O)CCCN(C)C(=O)C[C@@H](C(=O)N2CCCCC2)NC(=O)[C@H](CC(C)C)N(C)C(=O)[C@H](Cc2ccccc2)N(C)C(=O)CN(C)C(=O)[C@H]([C@@H](C)O)NC(=O)[C@H](Cc2ccccc2)N(C)C1=O [DP-275] ([NMeGABA]A[NMeL][NMeL]I[NMeF]T[Sar][NMeF][NMeL]D-Piperidide; lactam N-11) |  |  | 36 | 440 |  |
| CC(C)C[C@H]1C(=O)N(C)[C@@H](C)C(=O)N(C)[C@@H](C)C(=O)N(C)[C@@H](Cc2ccccc2)C(=O)N[C@@H]([C@@H](C)O)C(=O)N(C)[C@@H](Cc2ccccc2)C(=O)N(C)[C@@H](CC(C)C)C(=O)N2CCC[C@H]2C(=O)N[C@@H](C)CC(=O)N[C@@H](C)C(=O)NCC(=O)N1C [DP-766] (cyclo(AG[NMeL][NMeA][NMeA][NMeF]T[NMeF][NMeL]P[β3hA])) |  |  | 13 | 54 |  |
| CC[C@H](C)[C@@H]1NC(=O)[C@H](C)NC(=O)C[C@@H](C(=O)N(C)[C@@H](Cc2ccccc2)C(=O)N(C)[C@@H](Cc2ccccc2)C(=O)N[C@@H](C)C(=O)N2CCCCC2)NC(=O)[C@H](C)NC(=O)[C@H](C)N(C)C(=O)[C@H](CC(C)C)N(C)C(=O)CN(C)C(=O)[C@H]([C@@H](C)O)NC(=O)[C@H](C(C)C)N(C)C(=O)[C@H](Cc2ccccc2)N(C)C1=O [DP-389] (AI[NMeF][NMeV]T[Sar][NMeL][NMeA]AD[NMeF][NMeF]A-Piperidide; lactam N-10) | 15 | 14 |  |  |  |
